Measured values taken from patent US11730746B2, “17beta-heterocyclyl-digitalis like compounds for the treatment of heart failure” (priority 2018, dated 2023).

Legend:
dog renal Na,K-ATPase = target: T1, dog renal Na,K-ATPase (Canis lupus familiaris, UniProt P50997); assay: Inhibition of dog renal Na,K-ATPase activity (32P-ATP release); assay type: biochemical
T1 construct: incubated with 0.3 μg of purified dog kidney enzyme; from tissue; host or cells: dog kidney outer medulla
Method: Kidneys were sliced and the outer medulla was dissected, pooled and suspended (1 g/10 ml) in a sucrose-histidine solution, containing 250 mM sucrose, 30 mM histidine and 5 mM EDTA, pH 7.2 and homogenized. […] The pellet was suspended in the sucrose-histidine buffer and incubated for 20 min with a sodium-dodecyl-sulphate (SDS) solution dissolved in a gradient buffer, containing 25 mM imidazole and 1 mM EDTA, pH 7.5. […] The pellet was suspended in the gradient buffer.
Increasing concentrations of the standard ouabain, or tested compound, were incubated with 0.3 μg of purified dog kidney enzyme for 10 min at 37° C. in 120 μl final volume of a medium, containing 140 mM NaCl, 3 mM MgCl2, 50 mM Hepes-Tris, 3 mM ATP, pH 7.5. […] The inhibitory activity was expressed as percent of the control samples carried out in the absence of ouabain or tested compound.

[1] = target: T2, CYP19 (CYP450, 19; aromatase) (Homo sapiens, UniProt P11511); assay: Eurofins panel 118040; assay type: biochemical; conditions: crude membrane preparations
T2 construct: Eurofins 118040
Method: (§1) Radioligand binding to a panel of receptors was carried out by Eurofins on crude membrane preparations according to published procedures and by using appropriate reference standard (Eurofins, CVie 101 compound code PT #1207859, study #AB76416, quote #68407-1, for Cvie Therapeutics Limited, Taiwan (R.OC.) on Mar. 5, 2017). CVie 101 was tested at the concentration of 10 μM. No significant interaction was documented, except for Sodium Channel, site 2 from rat (cat #279510), where a significant response (≥50%) was noted (Table 7).

HMG-CoA Reductase = target: T3, HMG-CoA Reductase (Homo sapiens, UniProt P04035); assay: Eurofins panel 124010; assay type: biochemical
T3 construct: Eurofins 124010

[2] = target: T4, Peptidase, Angiotensin Converting Enzyme (Oryctolagus cuniculus, UniProt P12822); assay: Eurofins panel 107300; assay type: biochemical, rabbit
T4 construct: Eurofins 107300

Peptidase, Renin = target: T5, Peptidase, Renin (Homo sapiens, UniProt P00797); assay: Eurofins panel 164610; assay type: biochemical
T5 construct: Eurofins 164610

Phosphodiesterase PDE3 = target: T6, Phosphodiesterase PDE3 (Homo sapiens, UniProt Q14432); assay: Eurofins panel 152000; assay type: biochemical
T6 construct: Eurofins 152000
Method: as §1

Adenosine A1 = target: T7, Adenosine A1 (Homo sapiens, UniProt P30542); assay: Receptor binding 200510
T7 construct: Eurofins 200510; host or cells: crude membrane preparation
Method: as §1

Adenosine A2A = target: T8, Adenosine A2A (Homo sapiens, UniProt P29274); assay: Receptor binding 200610
T8 construct: Eurofins 200610; host or cells: crude membrane preparation
Method: as §1

Adrenergic β2 = target: T9, Adrenergic β2 (Homo sapiens, UniProt P07550); assay: Receptor binding 204110
T9 construct: Eurofins 204110; host or cells: crude membrane preparation
Method: as §1

Aldosterone = target: T10, Aldosterone (Rattus norvegicus, UniProt P22199); assay: Receptor binding 204600
T10 construct: Eurofins 204600
Method: as §1

Androgen (Testosterone) = assay: Receptor binding 206000; parameters: species or system human; conditions: 10 μM
Method: as §1

Angiotensin AT1 = target: T11, Angiotensin AT1 (Homo sapiens, UniProt P30556); assay: Receptor binding 210030
T11 construct: Eurofins 210030; host or cells: crude membrane preparation
Method: as §1

Angiotensin AT2 = target: T12, Angiotensin AT2 (Homo sapiens, UniProt P50052); assay: Receptor binding 210120
T12 construct: Eurofins 210120; host or cells: crude membrane preparation
Method: as §1

[3] = test system: Calcium Channel L-type, Dihydropyridine; assay: Receptor binding 214600; parameters: species or system rat; conditions: 10 μM
Method: as §1

Dopamine D1 = target: T13, Dopamine D1 (Homo sapiens, UniProt P21728); assay: Receptor binding 219500
T13 construct: Eurofins 219500; host or cells: crude membrane preparation
Method: as §1

Estrogen ERα = target: T14, Estrogen ERα (Homo sapiens, UniProt P03372); assay: Receptor binding 226010
T14 construct: Eurofins (contract assay) 226010
Method: as §1

[4] = test system: GABAA, Flunitrazepam, Central; assay: Receptor binding 226600; parameters: species or system rat; conditions: 10 μM
Method: as §1

GABAA, Muscimol, Central = assay: Receptor binding 226500; parameters: species or system rat; conditions: 10 μM
Method: as §1

Glucocorticoid = target: T15, Glucocorticoid (Homo sapiens, UniProt P04150); assay: Receptor binding 232030
T15 construct: Eurofins (contract assay) 232030
Method: as §1

[5] = test system: Glutamate, NMDA, Phencyclidine; assay: Receptor binding 233000; parameters: species or system rat; conditions: 10 μM
Method: as §1

Imidazoline I2, Central = assay: Receptor binding 241000; parameters: species or system rat; conditions: 10 μM
Method: as §1

Nicotinic Acetylcholine = assay: Receptor binding 258590; parameters: species or system human; conditions: 10 μM
Method: as §1

Potassium Channel (KATP) = target: T16, Potassium Channel (KATP) (Cricetus cricetus, UniProt Q09427); assay: Receptor binding 265600; parameters: species or system hamster
T16 construct: Eurofins (contract assay) 265600
Method: as §1

Sigma σ2 = target: T17, Sigma σ2 (Homo sapiens, UniProt Q5BJF2); assay: Receptor binding 299007
T17 construct: Eurofins (contract assay) 299007
Method: as §1

[6] = rats, study i.v. 1 mg/kg and os 10 mg/kg, mean

T10 sequence (P22199 whole entry): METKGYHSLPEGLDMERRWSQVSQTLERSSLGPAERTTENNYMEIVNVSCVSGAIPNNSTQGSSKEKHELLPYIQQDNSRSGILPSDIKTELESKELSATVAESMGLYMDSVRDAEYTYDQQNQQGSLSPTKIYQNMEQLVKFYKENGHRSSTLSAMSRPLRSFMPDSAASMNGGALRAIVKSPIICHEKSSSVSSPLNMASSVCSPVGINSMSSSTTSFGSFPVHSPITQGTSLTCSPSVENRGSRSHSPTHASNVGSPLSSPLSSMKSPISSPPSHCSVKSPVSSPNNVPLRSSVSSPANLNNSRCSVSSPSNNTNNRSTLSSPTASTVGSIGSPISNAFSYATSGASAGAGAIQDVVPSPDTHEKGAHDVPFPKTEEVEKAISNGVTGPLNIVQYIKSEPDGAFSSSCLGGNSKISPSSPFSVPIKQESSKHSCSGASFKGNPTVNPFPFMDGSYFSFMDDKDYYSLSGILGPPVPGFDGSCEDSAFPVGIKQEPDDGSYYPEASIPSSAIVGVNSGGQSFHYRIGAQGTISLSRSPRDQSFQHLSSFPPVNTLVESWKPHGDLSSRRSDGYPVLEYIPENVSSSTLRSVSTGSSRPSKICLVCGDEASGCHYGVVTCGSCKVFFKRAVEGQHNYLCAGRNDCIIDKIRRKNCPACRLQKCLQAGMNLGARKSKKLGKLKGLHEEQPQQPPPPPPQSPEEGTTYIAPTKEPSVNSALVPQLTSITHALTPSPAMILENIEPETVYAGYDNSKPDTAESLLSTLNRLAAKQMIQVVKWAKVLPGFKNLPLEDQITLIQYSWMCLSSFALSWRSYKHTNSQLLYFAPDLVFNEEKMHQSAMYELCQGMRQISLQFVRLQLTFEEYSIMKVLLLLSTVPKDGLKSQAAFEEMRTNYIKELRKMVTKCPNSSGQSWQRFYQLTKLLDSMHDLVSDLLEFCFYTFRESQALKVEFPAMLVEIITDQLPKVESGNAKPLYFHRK
T6 sequence (Q14432 whole entry): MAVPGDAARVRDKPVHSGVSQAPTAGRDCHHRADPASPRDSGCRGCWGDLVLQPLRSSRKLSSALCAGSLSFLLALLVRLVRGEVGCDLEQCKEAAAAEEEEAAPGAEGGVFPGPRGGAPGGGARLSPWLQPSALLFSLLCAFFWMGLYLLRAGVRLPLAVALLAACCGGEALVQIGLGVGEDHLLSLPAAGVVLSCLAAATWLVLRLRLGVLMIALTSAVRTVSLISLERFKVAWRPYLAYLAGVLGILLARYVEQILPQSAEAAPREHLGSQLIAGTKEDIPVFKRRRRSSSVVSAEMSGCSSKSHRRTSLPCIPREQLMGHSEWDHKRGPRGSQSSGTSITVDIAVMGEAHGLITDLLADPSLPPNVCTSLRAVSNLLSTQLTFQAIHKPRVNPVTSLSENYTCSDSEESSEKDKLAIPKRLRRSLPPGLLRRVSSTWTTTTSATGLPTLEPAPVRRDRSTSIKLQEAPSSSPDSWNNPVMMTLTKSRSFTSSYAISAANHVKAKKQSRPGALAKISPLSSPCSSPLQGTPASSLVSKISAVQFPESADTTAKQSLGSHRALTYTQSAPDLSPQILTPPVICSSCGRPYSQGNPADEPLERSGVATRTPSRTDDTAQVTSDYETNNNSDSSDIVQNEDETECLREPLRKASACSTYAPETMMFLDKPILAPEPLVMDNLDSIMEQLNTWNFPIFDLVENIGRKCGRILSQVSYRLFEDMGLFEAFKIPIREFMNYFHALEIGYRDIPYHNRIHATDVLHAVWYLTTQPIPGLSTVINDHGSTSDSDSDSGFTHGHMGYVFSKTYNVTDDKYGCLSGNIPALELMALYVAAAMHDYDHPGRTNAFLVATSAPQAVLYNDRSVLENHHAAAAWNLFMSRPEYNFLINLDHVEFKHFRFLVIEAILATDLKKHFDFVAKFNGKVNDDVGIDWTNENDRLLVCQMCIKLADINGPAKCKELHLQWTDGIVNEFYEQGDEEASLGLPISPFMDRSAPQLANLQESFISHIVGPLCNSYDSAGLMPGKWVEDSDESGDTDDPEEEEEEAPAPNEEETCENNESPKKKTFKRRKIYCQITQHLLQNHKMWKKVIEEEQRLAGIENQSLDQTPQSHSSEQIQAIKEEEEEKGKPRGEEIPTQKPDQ
T16 sequence (Q09427 whole entry): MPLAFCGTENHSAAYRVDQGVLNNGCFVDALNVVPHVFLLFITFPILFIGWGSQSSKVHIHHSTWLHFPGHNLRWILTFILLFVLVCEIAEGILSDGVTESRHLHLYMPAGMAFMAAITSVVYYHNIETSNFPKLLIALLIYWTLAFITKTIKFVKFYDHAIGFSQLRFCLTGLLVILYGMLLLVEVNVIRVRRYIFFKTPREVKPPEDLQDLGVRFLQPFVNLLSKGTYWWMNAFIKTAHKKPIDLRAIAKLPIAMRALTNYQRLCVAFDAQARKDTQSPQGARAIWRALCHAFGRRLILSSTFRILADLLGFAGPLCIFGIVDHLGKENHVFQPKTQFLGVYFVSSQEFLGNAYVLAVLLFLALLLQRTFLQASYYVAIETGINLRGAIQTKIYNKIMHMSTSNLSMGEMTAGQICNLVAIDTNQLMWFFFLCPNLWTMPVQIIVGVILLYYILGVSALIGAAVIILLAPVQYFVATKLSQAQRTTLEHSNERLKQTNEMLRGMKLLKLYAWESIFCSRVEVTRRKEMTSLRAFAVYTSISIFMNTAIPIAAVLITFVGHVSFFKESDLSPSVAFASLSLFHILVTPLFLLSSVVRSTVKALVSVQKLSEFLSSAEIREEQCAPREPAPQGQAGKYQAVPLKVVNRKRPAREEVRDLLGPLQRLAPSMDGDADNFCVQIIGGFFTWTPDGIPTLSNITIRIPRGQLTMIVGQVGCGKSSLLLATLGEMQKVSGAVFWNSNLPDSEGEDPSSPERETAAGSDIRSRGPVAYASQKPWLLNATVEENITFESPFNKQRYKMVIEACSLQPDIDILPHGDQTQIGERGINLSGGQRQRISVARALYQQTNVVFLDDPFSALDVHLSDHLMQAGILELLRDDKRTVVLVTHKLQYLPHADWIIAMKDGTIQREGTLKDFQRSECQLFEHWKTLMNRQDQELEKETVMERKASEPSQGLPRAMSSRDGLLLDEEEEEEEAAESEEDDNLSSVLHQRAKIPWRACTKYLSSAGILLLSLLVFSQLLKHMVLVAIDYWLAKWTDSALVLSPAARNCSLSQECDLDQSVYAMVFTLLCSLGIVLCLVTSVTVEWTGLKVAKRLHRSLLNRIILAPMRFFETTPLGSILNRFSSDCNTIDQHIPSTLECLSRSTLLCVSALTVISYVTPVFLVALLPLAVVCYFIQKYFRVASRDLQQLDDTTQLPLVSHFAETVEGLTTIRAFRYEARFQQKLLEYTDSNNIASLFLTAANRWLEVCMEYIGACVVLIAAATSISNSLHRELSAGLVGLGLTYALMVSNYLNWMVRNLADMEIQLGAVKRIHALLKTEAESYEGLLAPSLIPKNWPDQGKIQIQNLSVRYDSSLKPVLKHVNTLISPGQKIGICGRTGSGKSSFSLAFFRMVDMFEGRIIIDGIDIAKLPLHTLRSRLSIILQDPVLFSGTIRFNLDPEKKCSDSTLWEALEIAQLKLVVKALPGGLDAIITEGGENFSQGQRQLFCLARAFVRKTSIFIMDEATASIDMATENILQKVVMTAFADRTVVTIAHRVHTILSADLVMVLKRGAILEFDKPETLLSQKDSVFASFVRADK
T13 sequence (P21728 whole entry): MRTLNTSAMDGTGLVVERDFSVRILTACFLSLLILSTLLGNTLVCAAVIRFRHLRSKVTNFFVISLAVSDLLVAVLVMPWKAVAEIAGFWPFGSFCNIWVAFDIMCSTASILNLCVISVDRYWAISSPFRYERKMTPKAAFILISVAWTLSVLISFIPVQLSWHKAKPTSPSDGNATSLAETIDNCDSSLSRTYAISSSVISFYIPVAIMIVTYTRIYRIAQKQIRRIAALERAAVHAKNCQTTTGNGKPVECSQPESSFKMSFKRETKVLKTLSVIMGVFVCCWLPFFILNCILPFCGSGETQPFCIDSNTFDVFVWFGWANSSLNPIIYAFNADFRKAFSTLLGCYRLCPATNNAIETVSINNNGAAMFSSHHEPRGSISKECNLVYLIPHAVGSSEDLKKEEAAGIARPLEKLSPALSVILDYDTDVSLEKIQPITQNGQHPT
T8 sequence (P29274 whole entry): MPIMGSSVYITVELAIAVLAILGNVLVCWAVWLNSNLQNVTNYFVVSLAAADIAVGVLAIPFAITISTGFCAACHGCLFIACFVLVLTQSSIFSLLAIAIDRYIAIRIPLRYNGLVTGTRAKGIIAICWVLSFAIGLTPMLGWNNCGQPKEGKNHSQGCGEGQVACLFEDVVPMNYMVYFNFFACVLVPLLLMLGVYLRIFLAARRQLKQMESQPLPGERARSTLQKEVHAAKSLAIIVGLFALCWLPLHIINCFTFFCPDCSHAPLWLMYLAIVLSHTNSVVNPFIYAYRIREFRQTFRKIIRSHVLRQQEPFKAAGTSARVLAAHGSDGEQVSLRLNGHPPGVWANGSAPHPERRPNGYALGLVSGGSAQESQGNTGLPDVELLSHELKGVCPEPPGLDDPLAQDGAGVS
T9 sequence (P07550 whole entry): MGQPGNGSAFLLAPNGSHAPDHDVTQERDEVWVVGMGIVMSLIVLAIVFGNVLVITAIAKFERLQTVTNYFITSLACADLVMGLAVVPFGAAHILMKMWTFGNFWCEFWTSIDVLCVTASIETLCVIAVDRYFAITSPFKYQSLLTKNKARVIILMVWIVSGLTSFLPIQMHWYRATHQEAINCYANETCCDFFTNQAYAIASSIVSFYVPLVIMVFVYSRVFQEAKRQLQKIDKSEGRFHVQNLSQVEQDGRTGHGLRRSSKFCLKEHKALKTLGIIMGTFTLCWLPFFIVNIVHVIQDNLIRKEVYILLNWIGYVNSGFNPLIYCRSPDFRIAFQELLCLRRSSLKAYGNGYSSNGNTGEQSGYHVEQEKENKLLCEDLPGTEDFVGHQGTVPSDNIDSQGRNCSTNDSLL

SMILES: C[C@]12CC[C@H](O)C[C@H]1CCC1C2CC[C@]2(C)[C@@H](c3c[nH]cn3)CC[C@]12O (stereo partly drawn) [CVie 101, 3β-hydroxy-5β-10β-methyl-13β-methyl-14β-hydroxy-17β-(imidazol-4-yl)androstane]
- IC50 (dog renal Na,K-ATPase): 710 nM
- inhibition at 10 µM [1]: 36%
- inhibition at 10 µM (HMG-CoA Reductase): 7%
- inhibition at 10 µM [2]: 5%
- inhibition at 10 µM (Peptidase, Renin): 3%
- inhibition at 10 µM (Phosphodiesterase PDE3): -16%
- inhibition at 10 µM (Adenosine A1): -4%
- inhibition at 10 µM (Adenosine A2A): 0%
- inhibition at 10 µM (Adrenergic β2): 1%
- inhibition at 10 µM (Aldosterone): 6%
- % inhib (Androgen (Testosterone)): 1%
- inhibition at 10 µM (Angiotensin AT1): 12%
- inhibition at 10 µM (Angiotensin AT2): -1%
- % inhib [3]: −8%
- inhibition at 10 µM (Dopamine D1): -5%
- inhibition at 10 µM (Estrogen ERα): 14%
- % inhib [4]: 6%
- % inhib (GABAA, Muscimol, Central): −9%
- inhibition at 10 µM (Glucocorticoid): 10%
- % inhib [5]: 7%
- % inhib (Imidazoline I2, Central): 25%
- % inhib (Nicotinic Acetylcholine): 2%
- inhibition at 10 µM (Potassium Channel (KATP)): -6%
- inhibition at 10 µM (Sigma σ2): 30%
- AUC(0-inf) (Bioavailability in rats; rat, in vivo, 10 mg/kg): 2490 ng·h/mL
- AUC(0-t) (Bioavailability in rats; rat, in vivo, 10 mg/kg): 2430 ng·h/mL
- Cmax (Bioavailability in rats; rat, in vivo, 10 mg/kg): 1020 ng/mL
- MRT last (Bioavailability in rats; rat, in vivo, 10 mg/kg): 2.03 h
- Tmax (Bioavailability in rats; rat, in vivo, 10 mg/kg): 0.5 h
- half-life (Bioavailability in rats; rat, in vivo, 10 mg/kg): 2.21 h
- bioavailability (Bioavailability in rats; rat, in vivo, po, 10 mg/kg): 66.3%
- Cl_F_pred (Bioavailability in rats; [6]): 81.3 mL/min/kg
- Vz_F_pred (Bioavailability in rats; [6]): 14.29 L/kg
